Literature values, collected in patent US20200230082A1, “TOPICAL ACETAMINOPHEN FORMULATIONS FOR ITCH RELIEF” (UNIVERSITY OF MIAMI, priority 2017, published 2020).
Like-named read-outs stand apart in the source and are kept apart here.

Q: With CC(=O)Nc1ccc(O)cc1 [acetaminophen] as the molecule, how does the Solubility % (solvent: Ethanol) read?
A: The Solubility % was 37^1%.

Q: And the Solubility % (solvent: PEG-400)?
A: The Solubility % was 18.9^3%.

Q: What about the Solubility % (solvent: Propylene Glycol) of the same molecule?
A: The Solubility % was 9.8^2%.

Q: What about the Solubility % (solvent: Water) of the same molecule?
A: The Solubility % was 1.7^1%.
